Tests used:
RBCs from L-TBA mice = experiment: Osmotic fragility test after ex-vivo bile acid supplementation of RBCs; type: cell-based, mouse; conditions: 100 μM bile acid in PBS, 1 hr at 37° C. before NaCl osmotic fragility test; vs PBS alone
RBCs = experiment: Osmotic fragility test of RBCs from CCl4-treated mice; type: in vivo, mouse; conditions: RBCs of L-TBA mice treated with CCl4 for 2 weeks vs vehicle; NaCl osmotic fragility
Experimental: (§1) C57BL/6J wild-type (WT) mice (Stock #000664) were procured from Jackson Laboratory and bred in-house in specific pathogen-free condition at the University of Toledo College of Medicine and Life Sciences. Mice were housed in cages (n=5 mice/cage) containing corn cob bedding (Bed-O-Cob; The Andersons Co.) and nestlets (Cat #CABFM00088; Ancare). The cages were housed at 23° C. under a 12/12-h light/dark phase cycle and fed a grain-based laboratory chow diet (LabDiet 5001) ad libitum. Mice were screened for serum total bile acids (TBA) prior to weaning. On day 22 for weaning, mice with low bile acids (L-TBA<40 µM) or high bile acids (H-TBA≥40 µM) were segregated into separate cages. To induce liver fibrosis in mice, carbon tetrachloride (Sigma-Aldrich, St. Louis, MO) ([…]) was administered intraperitoncally three times a week for 2 weeks with corn oil (Sigma-Aldrich) (50 μL) serving as vehicle control.
Blood was collected in EDTA-containing tubes and then 10 μl aliquots were placed into a round bottom 96-well plate. […] The degree of red blood cell (RBC) hemolysis was evaluated spectrophotometrically at 540 nm on a Biotek Eon microplate spectrophotometer and normalized to the optical density value of 0.0% buffered salt solution. […] All groups were incubated at 37° C. for 1 hr prior and measured for osmotic fragility.

[1] = Serum total bile acids in carbon tetrachloride-induced liver injury model; type: in vivo, mouse; conditions: L-TBA mice, CCl4 i.p. three times a week for 2 weeks vs vehicle control
Experimental: as §1
Total bile acids (TBA) in hemolysis-free sera were measured using a TBA assay kit (Enzyme Cycling Method; Diazyme Laboratories) according to the manufacturer's protocol.

Row | Structure (SMILES) | resistance to osmotic lysis (hemolysis) of L-TBA RBCs (RBCs from L-TBA mice) | resistance of RBCs to osmotic lysis (RBCs) | increase in serum TBA levels [1] [fold]
1 | C[C@H](CCC(=O)NCCS(=O)(=O)O)[C@H]1CC[C@H]2[C@@H]3[C@H](O)C[C@@H]4C[C@H](O)CC[C@]4(C)[C@H]3C[C@H](O)[C@]12C [taurocholate, taurocholic acid] | failed to induce any resistance | – | –
2 | ClC(Cl)(Cl)Cl [CCl4, carbon tetrachloride] | – | highly resistant to osmotic lysis | 16
3 | C[C@H](CCC(=O)O)[C@H]1CC[C@H]2[C@@H]3[C@H](O)C[C@@H]4C[C@H](O)CC[C@]4(C)[C@H]3C[C@H](O)[C@]12C [cholic acid] | confer resistance | – | –

Source: patent US20250076280A1, “RAPID SCREENING FOR ELEVATED BILE ACIDS USING WHOLE BLOOD” (The University of Toledo, priority 2022, published 2025)
